Where a name gives a salt, the structure may show the parent alone.
System: radiation-induced emesis
Assay: radiation-induced emesis in the ferret
Type: in vivo
Conditions: whole body irradiation 2 Grey, dose 0.3 mg/kg s.c. immediately after irradiation
Protocol: In this model of emesis the onset of retching and vomiting occurs approximately 20 minutes after whole body irradiation (2 Grey.ident.200 Rads). The test compound is administered (e.g. i.p, p.o., i.v., s.c) immediately after irradiation and its effect on emesis determined by comparison with appropriate controls.

Cc1nnnn1-c1cc(CN[C@H]2CCCN[C@H]2c2ccccc2)c2occc2c1 [Example 1, [5-(5-Methyl-tetrazol-1-yl)-benzofuran-7-ylmethyl]-(2S-phenyl-piperidin-3S-yl)-amine dihydrochloride]
inhibition of radiation-induced emesis: inhibited radiation-induced emesis

From US5935972A, “Benzofuran derivatives as tachykinin antagonists” (Glaxo Group Limited, priority 1997, dated 1999)
